In patent US12336981B2, “Compounds and compositions for the inhibition of NAMPT” (Valo Health, Inc., priority 2010, dated 2025):
Several values for one entry are separate records, joined by “and”; a condition that tells them apart may be missing. Equal values may be shown once. Read-outs that look alike come from different tables or passages of the source.

Assays:
NAMPT = target: T1, NAMPT (Homo sapiens, UniProt P43490); assay: Biochemical inhibition assay: NAMPT enzymatic reaction, NMN quantified by mass spectrometry; settings: read-out: Biochem IC50
T1 construct: His tag; host or cells: E. coli
Procedure, shortened: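 Inhibition of E. coli-expressed His-tagged human NAMPT, measured as NMN formation by mass spectrometry after a 30 min room-temperature reaction containing 1 μM NAM, 100 μM PRPP and 2.5 mM ATP.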

A2780 cells = assay: In-vitro cell proliferation assay (SRB), A2780 cells; assay type: cell-based; settings: A2780 cells, 72 hours, read-out: A2780 IC50
Procedure, shortened: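 Viable cells measured by SRB staining after 6% TCA fixation, absorbance 570 nm. Media-only background subtracted; % inhibition derived at two compound concentrations.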

T1 sequence (P43490 whole entry): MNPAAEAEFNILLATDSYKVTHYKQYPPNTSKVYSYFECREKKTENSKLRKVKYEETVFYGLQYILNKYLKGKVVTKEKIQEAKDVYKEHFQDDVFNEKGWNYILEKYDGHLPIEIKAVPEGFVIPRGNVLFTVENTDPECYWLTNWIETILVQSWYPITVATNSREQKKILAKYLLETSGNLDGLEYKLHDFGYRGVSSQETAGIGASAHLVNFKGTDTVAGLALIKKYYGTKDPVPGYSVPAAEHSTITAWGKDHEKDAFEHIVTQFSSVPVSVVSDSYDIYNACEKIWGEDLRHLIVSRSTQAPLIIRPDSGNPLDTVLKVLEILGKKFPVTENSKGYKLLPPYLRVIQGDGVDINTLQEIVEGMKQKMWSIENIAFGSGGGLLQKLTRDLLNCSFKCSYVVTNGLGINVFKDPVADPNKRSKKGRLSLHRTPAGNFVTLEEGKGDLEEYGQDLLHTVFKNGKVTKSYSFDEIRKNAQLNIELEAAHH

CCCn1cc(S(=O)(=O)c2ccc(CNC(=O)c3cc4cnccc4[nH]3)cc2)cn1 [N-{[4-(1-propyl-1H-pyrazole-4-sulfonyl)phenyl]methyl}-1H-pyrrolo[3,2-c]pyridine-2-carboxamide]
IC50 (NAMPT; NAMPT enzymatic assay): 14.9 nM | IC50 (A2780 cells; Homo sapiens, A2780, 72 h, SRB): 5.9 nM

CN(C)c1ncc(S(=O)(=O)c2ccc(CNC(=O)c3cc4cnccc4[nH]3)cc2)cn1 [N-({4-[2-(dimethylamino)pyrimidine-5-sulfonyl]phenyl}methyl)-1H-pyrrolo[3,2-c]pyridine-2-carboxamide]
IC50 (NAMPT; NAMPT enzymatic assay): 19 nM | IC50 (A2780 cells; Homo sapiens, A2780, 72 h, SRB): 3.5 nM

O=C(NCc1ccc(S(=O)(=O)c2cccc(N3CCCC3)c2)cc1)c1cc2cnccc2[nH]1
IC50 (NAMPT; NAMPT enzymatic assay): 13.4 nM | IC50 (A2780 cells; Homo sapiens, A2780, 72 h, SRB): 2.8 nM

CCCOc1cccc(F)c1S(=O)(=O)c1ccc(CNC(=O)c2ccc3nccn3c2)cc1
IC50 (NAMPT; NAMPT enzymatic reaction): 91.4 nM | IC50 (A2780 cells; Homo sapiens, A2780, 72 h, SRB): 1 nM

O=C(NCc1ccc(S(=O)(=O)c2cccc3c2OCO3)cc1)c1ccc2nccn2c1 [N-{[4-(2H-1,3-benzodioxole-4-sulfonyl)phenyl]methyl}imidazo[1,2-a]pyridine-6-carboxamide]
IC50 (NAMPT; NAMPT enzymatic assay): 7.1 nM | IC50 (A2780 cells; Homo sapiens, A2780, 72 h, SRB): 13 nM

Cc1ccc(S(=O)(=O)c2ccc(CNC(=O)c3cc4ccncc4o3)cc2)cc1 [N-({4-[(4-methylbenzene)sulfonyl]phenyl}methyl)furo[2,3-c]pyridine-2-carboxamide]
IC50 (NAMPT; NAMPT enzymatic reaction): 121 nM | IC50 (A2780 cells; Homo sapiens, A2780, 72 h, SRB): 6 nM

Cc1cc(Cl)cnc1S(=O)(=O)c1ccc(CNC(=O)c2cc3ccncc3o2)cc1 [N-{[4-(5-chloro-3-methylpyridine-2-sulfonyl)phenyl]methyl}furo[2,3-c]pyridine-2-carboxamide]
IC50 (NAMPT; NAMPT enzymatic assay): 9.9 nM | IC50 (A2780 cells; Homo sapiens, A2780, 72 h, SRB): 16.5 nM

CCCCOc1ccc(Cl)cc1S(=O)(=O)c1ccc(CNC(=O)c2cnc3nccn3c2)cc1
IC50 (NAMPT; NAMPT enzymatic reaction): 3.7 nM | IC50 (A2780 cells; Homo sapiens, A2780, 72 h, SRB): 62.8 nM

O=C(NCc1ccc(S(=O)(=O)c2ccc(N3CCOCC3)nc2)cc1)c1ccc2nccn2c1 [N-({4-[6-(morpholin-4-yl)pyridine-3-sulfonyl]phenyl}methyl)imidazo[1,2-a]pyridine-6-carboxamide]
IC50 (NAMPT; NAMPT enzymatic assay): 9 nM | IC50 (A2780 cells; Homo sapiens, A2780, 72 h, SRB): 1.5 nM

O=C(NCc1ccc(S(=O)(=O)c2cccc3c2Oc2ccccc2S3)cc1)c1cc2cnccc2[nH]1 [N-{[4-(phenoxathiine-4-sulfonyl)phenyl]methyl}-1H-pyrrolo[3,2-c]pyridine-2-carboxamide]
IC50 (NAMPT; NAMPT enzymatic reaction): 5 nM | IC50 (A2780 cells; Homo sapiens, A2780, 72 h, SRB assay): 0.9 nM

CC(C)Oc1cccc(S(=O)(=O)c2ccc(CNC(=O)c3cnc4nccn4c3)cc2)c1F [N-[(4-{[2-fluoro-3-(propan-2-yloxy)benzene]sulfonyl}phenyl)methyl]imidazo[1,2-a]pyrimidine-6-carboxamide]
IC50 (NAMPT; NAMPT enzymatic assay): 1.8 nM | IC50 (A2780 cells; Homo sapiens, A2780, 72 h, SRB): 7 nM

Cc1ccc(S(=O)(=O)c2ccc(CNC(=O)c3cc4ccncc4s3)cc2)cc1Cl
IC50 (NAMPT; NAMPT enzymatic reaction): 5.1 nM | IC50 (A2780 cells; Homo sapiens, A2780, 72 h, SRB): 1 nM

Cn1ncc2c(S(=O)(=O)c3ccc(CNC(=O)c4cc5cc(O)ccc5[nH]4)cc3)cccc21 [5-hydroxy-N-{[4-(1-methyl-1H-indazole-4-sulfonyl)phenyl]methyl}-1H-indole-2-carboxamide]
IC50 (NAMPT; NAMPT enzymatic reaction): 100 to 1000 nM | IC50 (A2780 cells; Homo sapiens, A2780, 72 h, SRB): > 1000 nM

O=C(NCc1ccc(S(=O)(=O)c2ccc(Cl)cc2C(F)(F)F)cc1)c1cc2cnccc2[nH]1
IC50 (NAMPT; NAMPT enzymatic assay): 42.2 nM | IC50 (A2780 cells; Homo sapiens, A2780, 72 h, SRB): 17.4 nM

CCCCOc1ccc(S(=O)(=O)c2ccc(CNC(=O)c3cc4cnccc4[nH]3)cc2)cc1F
IC50 (NAMPT; NAMPT enzymatic reaction): 53.6 nM | IC50 (A2780 cells; Homo sapiens, A2780, 72 h, SRB): 13.4 nM

Cc1cc(Cl)cc(S(=O)(=O)c2ccc(CNC(=O)c3ccc4nccn4c3)cc2)c1
IC50 (NAMPT; NAMPT enzymatic reaction): 6.4 nM | IC50 (A2780 cells; Homo sapiens, A2780, 72 h, SRB): 2 nM

CCCOc1ccc(S(=O)(=O)c2ccc(CNC(=O)c3cnc4nccn4c3)cc2)cc1Cl
IC50 (NAMPT; NAMPT enzymatic reaction): 3.9 nM | IC50 (A2780 cells; Homo sapiens, A2780, 72 h, SRB): 2.4 nM

CC(C)Oc1cc(F)ccc1S(=O)(=O)c1ccc(CNC(=O)c2ccc3nccn3c2)cc1
IC50 (NAMPT; NAMPT enzymatic assay): 22.2 nM | IC50 (A2780 cells; Homo sapiens, A2780, 72 h, SRB): 2.1 nM

CCc1ccccc1S(=O)(=O)c1ccc(CNC(=O)c2cnc3nccn3c2)cc1
IC50 (NAMPT; NAMPT enzymatic reaction): 2.5 nM | IC50 (A2780 cells; Homo sapiens, A2780, 72 h, SRB): 24.9 nM

COc1cccc(S(=O)(=O)c2ccc(CNC(=O)c3cnc4nccn4c3)cc2)c1 [N-({4-[(3-methoxybenzene)sulfonyl]phenyl}methyl)imidazo[1,2-a]pyrimidine-6-carboxamide]
IC50 (NAMPT; NAMPT enzymatic reaction): 2 nM | IC50 (A2780 cells; Homo sapiens, A2780, 72 h, SRB): 12.4 nM

O=C(NCc1ccc(S(=O)(=O)c2cccc(N3CCCCC3)c2)cc1)c1cnc2nccn2c1
IC50 (NAMPT; NAMPT enzymatic assay): 5.1 nM and 1.2 nM | IC50 (A2780 cells; SRB): 5.7 nM | IC50 (A2780 cells; Homo sapiens, A2780, 72 h, SRB): 11.4 nM

Cc1ncccc1S(=O)(=O)c1ccc(CNC(=O)c2cnc3nccn3c2)cc1 [N-{[4-(2-methylpyridine-3-sulfonyl)phenyl]methyl}imidazo[1,2-a]pyrimidine-6-carboxamide]
IC50 (NAMPT; NAMPT enzymatic assay): 20.8 nM | IC50 (A2780 cells; Homo sapiens, A2780, 72 h, SRB): 100 to 1000 nM

CCOc1cc(Cl)ccc1S(=O)(=O)c1ccc(CNC(=O)c2cc3cnccc3[nH]2)cc1
IC50 (NAMPT; NAMPT enzymatic reaction): 11.2 nM | IC50 (A2780 cells; Homo sapiens, A2780, 72 h, SRB): 0.4 nM

Cn1ncc2ccc(S(=O)(=O)c3ccc(CNC(=O)c4cc5cnccc5[nH]4)cc3)cc21 [N-{[4-(1-methyl-1H-indazole-6-sulfonyl)phenyl]methyl}-1H-pyrrolo[3,2-c]pyridine-2-carboxamide]
IC50 (NAMPT; NAMPT enzymatic assay): 5.1 nM | IC50 (A2780 cells; Homo sapiens, A2780, 72 h, SRB): 3.3 nM

CCOc1cc(F)ccc1S(=O)(=O)c1ccc(CNC(=O)c2cc3ccncc3o2)cc1
IC50 (NAMPT; NAMPT enzymatic reaction): 7.7 nM | IC50 (A2780 cells; Homo sapiens, A2780, 72 h, SRB): 6.9 nM
